Test results published in patent US20090131513A1, “ANTI-INFLAMMATORY MODALITIES” (Novogen Research Pty Ltd., priority 2005, published 2009).

Key:
TX synthase (TXS) = target: T1, TX synthase (TXS) (Homo sapiens, UniProt P24557); assay: TXB2 synthesis following addition of exogenous PGH2 to U937 cells; format: cell-based; details: 1, 10, 100 μM, undifferentiated U937 cells, PGH2 5 μM
T1 construct: endogenous in cells; host or cells: undifferentiated U937 cells
T1 sequence (P24557 1-533): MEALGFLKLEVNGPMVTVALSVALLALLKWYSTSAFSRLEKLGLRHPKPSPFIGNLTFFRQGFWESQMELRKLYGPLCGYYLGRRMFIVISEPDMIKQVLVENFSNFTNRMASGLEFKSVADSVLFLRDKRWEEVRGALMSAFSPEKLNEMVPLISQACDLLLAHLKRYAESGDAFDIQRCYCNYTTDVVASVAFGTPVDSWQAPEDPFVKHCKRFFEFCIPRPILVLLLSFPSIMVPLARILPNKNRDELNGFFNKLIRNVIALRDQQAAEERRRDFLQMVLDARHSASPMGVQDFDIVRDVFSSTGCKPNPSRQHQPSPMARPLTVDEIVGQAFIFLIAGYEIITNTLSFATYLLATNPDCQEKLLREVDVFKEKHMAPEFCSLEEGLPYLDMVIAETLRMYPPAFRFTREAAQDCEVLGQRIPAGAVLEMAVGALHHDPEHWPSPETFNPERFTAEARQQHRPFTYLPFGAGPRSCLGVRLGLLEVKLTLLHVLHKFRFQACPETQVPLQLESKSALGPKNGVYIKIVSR
Method: To examine effects of test compounds directly on TX synthase (TXS), a different assay system was used. Whereas arachidonic acid (AA) is the substrate for COX, PGH2 is the substrate for TX synthase. To examine directly the effect of these compounds on TXS, exogenous ? elow:
Test compounds at 0 μM, 1 μM, 10 μM and 100 μM (in DMSO) were incubated with undifferentiated U937 cells (6×10^6/ml) for 30 min at 37° C., after which PGH2 (5 μM) was added. After incubation for 10 min, the reaction was terminated by centrifugation and the supernatants were collected and TXB2 production was measured in triplicate by RIA. ANOVA followed by Newman-Keuls multiple comparisons test was used to examine differences between doses and the control values. A statistical significance level of 0.05 was used and differences from control values are indicated by an asterisk (*).

NFκB promoter activity = assay: Inhibition of NFκB promoter activity (β-lactamase reporter) in TNFα-stimulated THP-1 cells; format: cell-based, human; details: 5 h
Method: Human macrophage THP-1 cells, modified to include the β-lactamase reporter gene, were seeded into wells of a 96-well plate (50×10^3 cells/well) in the presence of RPMI 1640 medium (70 μl). TNFα (7.5 ng/ml) and human sera (final concentration of 20%) were added to each well. Plates were incubated for 5 h at 37° C. to allow for NFkB-stimulated β-lactamase production. LiveBLAzer™ FRET B/G Substrate (CCF4-AM) was then added to assay for β-lactamase activity. Once CCFA-AM enters a cell, it is converted to negatively charged CCF4 by endogenous esterases. Excitation of this substrate at 409 nm leads to efficient FRET between the coumarin and fluorescein moieties, resulting in a green fluorescence detectable at 530 nm. The presence of β-lactamase leads to cleavage of CCF4 and results in a loss of FRET, resulting in a robust blue fluorescent signal detectable at 460 nm. Thus, activity of beta-lactamase (a marker of NFkB-promoter activity) is measured as a product to substrate ratio (blue/green fluorescence ratio: 460 nm/530 nm).

[1] = tested on: contractile response of the aortic ring to noradrenaline; assay: Vasodilatory activity in the rat aortic ring assay; set-up: species or system rat (Sprague-Dawley); details: test compound 1 μg/ml
Method: The vasodilatory capacity of test compounds was examined ex vivo using the rat aortic ring assay.
Male Sprague-Dawley rats (250±50 g) were euthanized with 80% CO2 and 20% O2. The thoracic aorta was excised and quickly mounted in organ-baths as described (Chin-Dusting et al. 2001). Full concentration-contractile curves were obtained to noradrenaline ([…]) with and without test compounds delivered at a concentration of 1 μg/ml. Experiments were repeated in n=5 different rings from 5 different animals. Only one compound at any one concentration was tested on any one ring from any one animal. Sigmoidal dose response curves were fitted for the data and the logEC50 calculated (Prism 4, GraphPad Software). The difference in these values between the presence and absence of test compound was calculated using a two-tailed paired t test. The effects of β-oestrodiol and vehicle alone were examined as a positive and negative control respectively.

female BALB/c mice = assay: Absence of gastrointestinal toxicity, gavage for 10 days; format: in vivo; details: 20 mg/kg daily by gavage for 10 days
Method: Compound 2 at 5 mg/kg (n=3) or vehicle (PEG 400:PBS1:1; n=2) was administered via gavage to female BALB/c mice for 10 days. […] Histology of cecum and colon were normal.
The diastereoisomeric mixture of Compounds 3a and 3b in PEG 400:PBS1:1 was administered to 7 week old female BALB/c mice (n=8) by gavage at 20 mg/kg daily for 10 days. There was no vehicle control group for comparison.
Compound 4 at 5 mg/kg (n=3) or vehicle (n=2, PEG:PBS 1:1) was administered via gavage to female BALB/c mice for 10 days. […] Histology of cecum and colon were normal.

[2] = Anti inflammatory activity (test not specified)

Row | SMILES | thromboxane synthase inhibition (TXB2 synthesis after exogenous PGH2), selectivity in words (TX synthase (TXS)) | inhibition of NFκB compared to vehicle control (NFκB promoter activity) | contractile response (logEC50) of the aortic ring to noradrenaline compared with vehicle [1] | mean increase in body weight over the 10 days, of the starting weight (female BALB/c mice) | body weight, in words (female BALB/c mice; no vehicle group) | anti inflammatory activity [2]
1 | Cc1c(O)ccc2c1OCC(c1ccc(O)cc1)C2O (stereo not drawn) [Compound 3] | less specific | significantly (p<0.001) inhibited | significantly inhibited | 5% | all mice maintained body weight | 
2 | Oc1ccc(C23COc4cc(O)ccc4C2O3)cc1 (stereo not drawn) [3,4-epoxy-4′,7-dihydroxyisoflavan] |  |  |  |  |  | shows anti inflammatory activity
